The record followed here is the NIST ThermoML archive (doi:10.1021/acs.jced.7b00704).

Data set [1] in a line: refractive index (Na D-line) (dimensionless). The conditions noted are these: Liquid, Standard Abbe refractometry.
For data set [2] the following is noted: Liquid, Ebulliometric method (Recirculating still).
Data set [3] can be described thus: refractive index (Na D-line) (dimensionless); xn = mol fraction of the nth substance listed. The conditions noted are these: 293.15 K, 93 kPa, Liquid, Standard Abbe refractometry.

For orientation: refractive index means a measure of how strongly the sample bends light. The term vapor or sublimation pressure denotes the equilibrium pressure above the liquid or solid.

Numbers after ± are expanded uncertainties.

With `CCCCOC(C)=O` [butyl ethanoate], the refractive index in data set [1] (293.15 K, 93 kPa) is listed as 1.3943 ± 0.0004; in data set [1] (298.15 K, 101.33 kPa), 1.39175 ± 0.00038. Besides, the “vapor or sublimation pressure” value in data set [2] (396.21 K) was found to be 93.13 ± 0.95 kPa.
For `CC(=O)OC(C)C` [1-methylethyl ethanoate], the refractive index is given as 1.3774 ± 0.0004 in data set [1] (293.15 K, 93 kPa) and 1.3748 ± 0.00042 in data set [1] (298.15 K, 101.33 kPa). Besides, the “vapor or sublimation pressure” value in data set [2] (358.92 K) turned out to be 93.13 ± 0.96 kPa.
Take `CCOC(C)=O` [ethyl acetate]: the refractive index in data set [1] (293.15 K, 93 kPa) is 1.3724 ± 0.0004; in data set [1] (298.15 K, 101.33 kPa) it was 1.3698 ± 0.00038. In addition, the “vapor or sublimation pressure” value in data set [2] (347.58 K) came out at 93.13 ± 0.95 kPa.
As to `COC(C)=O` [methyl ethanoate], the refractive index is listed as 1.3615 ± 0.0004 in data set [1] (293.15 K, 93 kPa) and 1.35872 ± 0.00042 in data set [1] (298.15 K, 101.33 kPa). In data set [2] (327.63 K), the “vapor or sublimation pressure” value is recorded as 93.13 ± 0.96 kPa.
Take `CCCOC(C)=O` [propyl ethanoate]: the refractive index in data set [1] (293.15 K, 93 kPa) came out at 1.3843 ± 0.0005; in data set [1] (298.15 K, 101.33 kPa) it was 1.38181 ± 0.00054. The “vapor or sublimation pressure” value in data set [2] (372.05 K) is reported as 93.13 ± 0.97 kPa.
Consider `COC(C)=O` [methyl ethanoate] + COC(=O)OC, for which the refractive index came to 1.3682 ± 0.0004 in data set [3] (x1 = 0.0985); 1.3679 ± 0.0004 in data set [3] (x1 = 0.1427); 1.3673 ± 0.0004 in data set [3] (x1 = 0.2469); 1.3668 ± 0.0004 in data set [3] (x1 = 0.3243); 1.3665 ± 0.0004 in data set [3] (x1 = 0.3794); 1.366 ± 0.0004 in data set [3] (x1 = 0.445). For the same compound, the refractive index came out at 1.3654 ± 0.0004 in data set [3] (x1 = 0.5283); 1.3645 ± 0.0004 in data set [3] (x1 = 0.6548); 1.3639 ± 0.0004 in data set [3] (x1 = 0.7403); 1.3634 ± 0.0004 in data set [3] (x1 = 0.7976); 1.3625 ± 0.0004 in data set [3] (x1 = 0.8939); 1.362 ± 0.0004 in data set [3] (x1 = 0.9548). Moreover, the refractive index in data set [3] (x1 = 1) is 1.3615 ± 0.0004.
Take `CC(=O)OCCC(C)C` [3-methylbutyl ethanoate]: the refractive index is on record as 1.4007 ± 0.0005 in data set [1] (293.15 K, 93 kPa) and 1.39842 ± 0.00054 in data set [1] (298.15 K, 101.33 kPa). Further, the “vapor or sublimation pressure” value in data set [2] (412.31 K) is given as 93.13 ± 0.97 kPa.
For `COC(=O)OC` [dimethyl carbonate], the refractive index in data set [1] (293.15 K, 93 kPa) is 1.3688 ± 0.0004; in data set [1] (298.15 K, 101.33 kPa), 1.3664 ± 0.00042. The “vapor or sublimation pressure” value in data set [2] (360.73 K) was 93.13 ± 0.96 kPa.
